Results published in patent US12473350B2, “Recombinant humanized type III collagen microsphere with innovative spatial structure, and design, preparation process and usethereof” (Nanjing Tzone Biotechnology Co., Ltd., priority 2023, dated 2025).

Test system: Human skin fibroblasts (HSF cells)
Experiment: MTT assay, effect on HSF cell growth
Assay type: cell-based
Details: 10% DMSO
Description: Dimethyl sulfoxide (DMSO) can dissolve formazan in cells, and its light absorption value can be measured at a wavelength of […] using an enzyme-linked immunosorbent assay, which can indirectly reflect the number of live cells. Within a certain range of cell numbers, the amount of MTT crystals formed is proportional to the number of cells.
Logarithmic phase cells are collected and the cell suspension concentration is adjusted. 100 μL of cell suspension is added per well and plated to adjust the density of the cells to be tested to 10,000 cells/well, and the edge wells are filled with sterile PBS. The cells are incubated under 5% CO2 at 37° C. until the cell monolayer spreads over all the bottom of the wells. Then, the drug in a concentration gradient is added; in principle, the drug can be added once the cells have adhered, with five parallel settings. The incubation is performed under 5% CO2 at 37° C. for 24 h or 48 h and the cells are observed under an inverted microscope. 20 μL of MTT solution (5 mg/mL, i.e., 0.5% MTT) is added to each well and the incubation is continued for 4 h. […] The light absorption value of each well is measured at […] using an Enzyme-Linked Immunosorbent Assay (ELISA) reader. […]

## C[S+](C)[O-] [DMSO, Dimethyl Sulfoxide, reference compound]
24 h
  RGR (24 h): 28.20%
48 h
  RGR (48 h): 17.15%
